Measurements taken from US12186283B2, “Bismuth-thiol compositions and methods of use” (Microbion Corporation, priority 2018, dated 2025).
Converted amounts (≈) assume the structure as drawn.

Tests used:
[1] = test system: Enterobacteriaceae; assay: Broth microdilution MIC (Example 11), group statement; assay type: cell-based; details: ATCC QC E. coli, ESBL-, KPC- and NDM-1-positive isolates
[2] = test system: beta-hemolytic streptococci (S. pyogenes, S. agalactiae); assay: Broth microdilution MIC (Example 11); assay type: cell-based, Streptococcus pyogenes, Streptococcus agalactiae
[3] = test system: Burkholderia spp. (B. cepacia complex); assay: MIC against CF isolates (Example 5); assay type: cell-based; details: Table 4A; strain AU197, B. cenocepacia (B cepacia complex)
[4] = test system: MUCILAIR™ fully differentiated human airway epithelium; assay: Acute toxicity on […] fully differentiated human airway epithelium (LDH, TEER, morphology); assay type: cell-based
Protocol: Controlled in vitro evaluation of BisEDT, with respect to potential cytotoxicity on fully differentiated human airway epithelium was carried out. Both solubilized and solid (powder/particulate) forms of BisEDT were evaluated for cytotoxicity by Epithelix, a contract research organization (CRO) specializing in this form of cytotoxicity evaluation utilizing a proprietary, in vitro fully differentiated human airway epithelium test system ([…]™). The […]™ system facilitated evaluation of cytotoxicity through both LDH release (from the culture medium side) and trans-epithelial electrical resistance (TEER) from the apical/air-exposed side as well as pre- and post-exposure microscopic examination for morphological changes (FIG. 13).
The assay system used in this study is Epithelix's proprietary technology sold under the trademark […]™ […]™ is a fully differentiated and ready-to-use 3D model of human airway epithelium, constituted with primary human epithelial cells freshly isolated from nasal, tracheal or bronchial biopsies. […]™ (FIG. 24), is not only morphologically and functionally differentiated, but can also be maintained in a homeostatic state for a long period of time (Huang et al., 2009).
[…]™ is composed of basal cells, ciliated cells and mucus cells. The proportion of these various cell types is preserved compared to what one observes in vivo (Huang et al., 2011). Moreover the epithelia are started from de-differentiated cells. The cells undergo a progressive differentiation with time. After 45 days of culture, the epithelia are fully ciliated, secret mucus and are electrically tight (TEER>200 (2 Ω·cm^2). The activity of the main epithelial ionic channels, such as CFTR, EnaC, Na/K ATPase, is preserved and the epithelia is shown to respond in a regulated and vectorial manner to the pro-inflammatory stimulus, TNF-α (Huang et al., 2011). A large panel of cytokines, chemokines and metalloproteinases has been detected in […]™ (e.g. IL-8, IL-6, GM-CSF, MMP-9, GRO-α).
BisEDT (MB-1-B3) was applied on the apical surface of […]™ during 1, 8, 24 and 48 hours (FIG. 13). The effect of 6 concentrations was studied: 0.001, 0.01, 0.1, 1, 10 and 30 uM. […] 30 μl solution at the selected concentration was applied on the apical surface of […]™. The negative control corresponds to the vehicle solution (0 μM) and untreated cultures. The positive control corresponds to 50 μl to 10% Triton X-100 diluted in a buffered saline solution. The study was run in triplicates.
During the study, inserts were maintained in a CO2 incubator (37° C., 5% CO2, 100% humidity). The following end-points were determined: • Tissue integrity monitoring: Trans-Epithelial Electrical Resistance (TEER) measurement (quantitative) at D0, D1 and D2. • Cytotoxicity monitoring: LDH test (quantitative) at D0, D1 and D2. • Morphology: cellular and tissue integrity examined under contrast microscope at DO, D1 and D2.
(§1) Compound BisEDT was applied on the apical surface of […]™. The effect of 5 concentrations after 1, 8, 24 and 48 hours exposure was studied: 0.033, 0.33, 3.33, 33.3, 333 μg/cm^2. The compound was diluted in Dextran powder at the targeted concentration and compressed in order to obtain a tablet. The study was run in triplicates. During the study, inserts were maintained in a CO2 incubator (37° C., 5% CO2, 100% humidity).
as §1, with “of 1 μg/cm^2” for “of 5”, “was studied.” for “was studied: 0.033, 0.33, 3.33, 33.3, 333 μg/cm^2.”

[5] = test system: Acinetobacter baumannii; assay: Broth microdilution MIC (Example 12)
[6] = BisEDT as solid, 1 μg/cm^2, 1 hour exposure
[7] = BisEDT as solid, 0.033 and 0.33 μg/cm^2, all tested time points
[8] = BisEDT in solution 0.001-30 μM apical, 1, 8, 24 and 48 hours

CC(S)C(C)S.[Bi] (stereo not shown) [BisBDT, bismuth-2,3-butanedithiol] was tested, and the “MIC values (range across isolates)” value [1] was 0.5 to 2 µg/mL, the MIC ([2]; S. agalactiae MMX 3741, ERY^R CC^R) was 0.25 µg/mL and the MIC ([2]; S. agalactiae MMX 3743, ERY^R CC^R) was 0.25 µg/mL. The MIC ([2]; S. agalactiae MMX 4077, ERY^R CC^R) was 0.25 µg/mL, the MIC ([2]; S. agalactiae MMX 4086, ERY^R CC^R) was 0.25 µg/mL and the “MIC values (range across isolates)” value ([2]; macrolide-resistant S. pyogenes, clindamycin-resistant S. agalactiae) was 0.03 to 2 µg/mL. For the same molecule, the MIC [3] was 4 µg/mL.
C1C[S][Bi]([S]CC[S][Bi]2[S]CC[S]2)[S]1 [BisEDT, bismuth-1,2-ethanedithiol] was tested, and the morphology after exposure ([4]; BisEDT as solid in dextran tablet, 3.33 μg/cm^2, 24 and 48 h) was “Cells were rounded and opaque at the periphery of inserts”, the morphology after exposure ([4]; BisEDT as solid in dextran tablet, 0.033 and 0.33 μg/cm^2) was “No morphological modifications were observed” and the morphology after exposure ([4]; BisEDT as solid in dextran tablet, 33.3 and 333 μg/cm^2, 8, 24 and 48h) was “Cells were rounded and opaque on the inserts”. The “tissue integrity (TEER)” value ([4]; BisEDT as solid, 1 μg/cm^2, 8, 24 and 48H exposure) was “Loss of tissue integrity is observed”, the “cytotoxicity (LDH release)” value ([4]; BisEDT as solid, 1 μg/cm^2, 8, 24 and 48h) was “time- and dose-dependent cytotoxicity is observed” and the morphology after exposure ([4]; BisEDT as solid, 1 μg/cm^2, 1 hour and 8 hour exposure) was “no important morphological changes were observed”. For the same molecule, the “cytotoxicity (LDH release)” value [4, 6] was “No significant effect on LDH release”, the “tissue integrity (TEER)” value [4, 6] was “no significant effect on TEER was observed” and the morphology after exposure ([4]; BisEDT as solid, 1 μg/cm^2, 24h exposure) was “the epithelial cells on 2 inserts out of 3 were dead”. The morphology after exposure ([4]; BisEDT as solid, 1 μg/cm^2, 48 h exposure) was “the epithelial cells on all 3 inserts were dead”, the “cytotoxicity (LDH release)” value [4, 7] was “No significant effect on LDH release” and the “tissue integrity (TEER)” value [4, 7] was “No significant effect was observed on TEER”. The “cytotoxicity (LDH increase, TEER reduction)” value ([4]; BisEDT as solid, 1 and 3.33 μg/cm^2, 24 h and 48h exposure) was “induces cytotoxicity”, the “cytotoxicity (LDH release)” value ([4]; BisEDT as solid, 3.3, 33.3 and 333 μg/cm^2) was “time and dose dependent, cytotoxicity is observed” and the “tissue integrity (TEER)” value ([4]; BisEDT as solid, 3.33, 33.3 and 333 μg/cm^2, 8, 24 and 48H exposure) was “Loss of tissue integrity is observed”. The “toxicity (LDH, TEER, morphology)” value ([4]; BisEDT as solid, 33.3, 333 μg/cm^2) was “strong toxicity was observed”, the “tissue integrity (TEER)” value ([4]; BisEDT as solid, all tested doses (0.033-333 μg/cm^2), 1 hour exposure) was “no significant effect on TEER is observed” and the “local toxicity on the airway epithelium (morphology, TEER, LDH)” value ([4]; BisEDT in liquid solution 0.001-30 μM, 1, 8, 24 and 48 hours) was “showed no local toxicity”. The morphology after exposure [4, 8] was “No morphology changes were observed”, the “percentage of cytotoxicity (LDH release)” value [4, 8] was “LDH release was not altered” and the “tissue integrity (TEER)” value [4, 8] was “didn't show significant effect on TEER”. For the same molecule, the “highest tested concentration, no toxic effects observed” value ([4]; solubilized BisEDT, all time points up to 48 hours (=20.83 μg/mL)) was 30 µM.
In the case of C[C@@H](O)[C@H]1C(=O)N2C(C(=O)O)=C(S[C@@H]3CN[C@H](C(=O)N(C)C)C3)[C@H](C)[C@H]12 [MEM], the MIC ([5]; Acinetobacter baumannii CDC 273, ESBL/OXA) is reported as over 8 µg/mL, the MIC ([5]; Acinetobacter baumannii CDC 274, ESBL/OXA) is reported as over 8 µg/mL and the MIC ([5]; Acinetobacter baumannii CDC 275, ESBL/OXA) is reported as over 8 µg/mL. For the same molecule, the MIC ([5]; Acinetobacter baumannii CDC 277, ESBL/OXA) was over 8 µg/mL, the MIC ([5]; Acinetobacter baumannii CDC 284, ESBL/OXA) was over 8 µg/mL and the MIC ([5]; Acinetobacter baumannii CDC 307, OXA) was 8 µg/mL (≈ 20.9 µM). It also gave an MIC ([5]; Acinetobacter baumannii CDC 308, ESBL/OXA) of 8 µg/mL (≈ 20.9 µM), an MIC ([5]; Acinetobacter baumannii CDC 311, OXA) of over 8 µg/mL and an MIC ([5]; Acinetobacter baumannii CDC 312, OXA) of 4 µg/mL (≈ 10.4 µM). The MIC ([5]; Acinetobacter baumannii CDC 313, ESBL/OXA) was over 8 µg/mL and the MIC ([5]; Acinetobacter baumannii NCTC 13304, OXA) was over 8 µg/mL.
